Test results: ChEMBL document CHEMBL3217750, “Small-molecule inhibitors of dimeric transcription factors: Antagonism of proteinprotein and proteinDNA interactions” (Medchemcomm, 2012)
Each block holds one molecule with its values, some of them ahead of it. Bridge positions count the residues as written; N and C are the ends. Peptide text beside a SMILES is read from it.

How the values were obtained:
[1] = target: Transcription factor AP1 (Homo sapiens, UniProt P01100+P05412); test: Inhibition of c-FOS/AP1 (unknown origin); type: protein-complex assay
[2] = target: T1, c-Myc/Max (Homo sapiens, UniProt P01106+P61244); test: Inhibition of c-Myc/Max (unknown origin) DNA-binding activity preincubated for 1 hr followed by DNA addition measured after 15 mins by electrophoretic mobility shift assay; type: protein-complex assay
[3] = target: T2, Myc proto-oncogene protein (Homo sapiens, UniProt P01106); test: Inhibition of c-MYC in human HL60 cells by chemiluminescence assay; type: cell-based, HL-60
[4] = target: T3, Lymphoid enhancer-binding factor 1 (Homo sapiens, UniProt Q9UJU2); test: Inhibition of LEF-1-mediated gene transcription in HEK293 cells after 48 hrs by luciferase reporter gene assay; type: cell-based
[5] = target: T3, Lymphoid enhancer-binding factor 1; test: Inhibition of LEF-1 (unknown origin) expressed in CEF assessed as inhibition of beta catenin interaction by electrophoretic mobility shift assay
[6] = target: Protein max (Homo sapiens, UniProt P61244); test: Inhibition of dimerized Max (unknown origin) DNA-binding activity
[7] = target: T1, c-Myc/Max; test: Inhibition of c-Myc/Max (unknown origin) DNA-binding activity; type: protein-complex assay
[8] = target: T2, Myc proto-oncogene protein; test: Binding affinity to c-MYC (353 to 437) (unknown origin) by fluorescence polarization assay
[9] = species: Homo sapiens; test: Selectivity ratio of IC50 for c-Myc/Max (unknown origin) to IC50 for AP-1 complex (unknown origin)
[10] = target: T1, c-Myc/Max; test: Inhibition of c-Myc/Max (unknown origin); type: protein-complex assay
[11] = target: Transcription factor Jun (Homo sapiens, UniProt P05412); test: Inhibition of AP-1 complex (unknown origin)
[12] = species: Homo sapiens; test: Ratio of curcumin IC50 to compound IC50 for AP-1 complex (unknown origin)
[13] = species: Homo sapiens; test: Selectivity ratio of IC50 for dimerized Max (unknown origin) to IC50 for c-Myc/Max (unknown origin)
[14] = test system: HL-60; test: Antiproliferative activity against human HL60 cells; type: functional, cell-based

T3 sequence (Q9UJU2 whole entry): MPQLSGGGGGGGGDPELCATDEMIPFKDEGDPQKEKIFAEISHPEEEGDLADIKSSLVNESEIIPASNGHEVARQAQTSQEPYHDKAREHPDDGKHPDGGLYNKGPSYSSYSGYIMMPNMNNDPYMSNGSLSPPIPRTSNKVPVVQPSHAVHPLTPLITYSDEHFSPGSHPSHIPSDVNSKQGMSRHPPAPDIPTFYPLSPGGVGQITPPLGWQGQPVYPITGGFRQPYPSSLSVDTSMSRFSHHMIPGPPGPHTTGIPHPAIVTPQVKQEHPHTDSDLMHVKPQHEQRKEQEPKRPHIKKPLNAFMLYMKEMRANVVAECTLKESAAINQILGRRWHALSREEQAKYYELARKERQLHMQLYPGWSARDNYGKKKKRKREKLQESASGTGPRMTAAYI
T1 sequence (P01106 whole entry): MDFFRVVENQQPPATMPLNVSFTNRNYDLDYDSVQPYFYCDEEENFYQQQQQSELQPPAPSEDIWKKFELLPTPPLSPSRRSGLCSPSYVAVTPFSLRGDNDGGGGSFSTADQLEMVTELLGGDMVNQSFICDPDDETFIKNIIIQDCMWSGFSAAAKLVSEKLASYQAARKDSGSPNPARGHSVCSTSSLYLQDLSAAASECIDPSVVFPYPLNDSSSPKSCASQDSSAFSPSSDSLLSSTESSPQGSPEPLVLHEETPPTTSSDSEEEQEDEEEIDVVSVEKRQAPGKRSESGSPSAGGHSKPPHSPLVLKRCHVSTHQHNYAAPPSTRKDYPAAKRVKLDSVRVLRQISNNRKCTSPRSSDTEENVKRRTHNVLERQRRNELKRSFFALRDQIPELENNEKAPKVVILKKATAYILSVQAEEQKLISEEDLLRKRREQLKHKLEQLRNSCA
T1 sequence (P61244 whole entry): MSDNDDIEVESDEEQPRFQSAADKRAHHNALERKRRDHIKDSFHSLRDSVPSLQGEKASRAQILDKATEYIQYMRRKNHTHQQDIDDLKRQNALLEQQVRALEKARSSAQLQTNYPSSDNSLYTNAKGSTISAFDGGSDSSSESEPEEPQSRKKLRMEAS
T2 sequence (P01106 whole entry): as the sequence (P01106 whole entry) above
Transcription factor Jun, sequence (P05412 whole entry): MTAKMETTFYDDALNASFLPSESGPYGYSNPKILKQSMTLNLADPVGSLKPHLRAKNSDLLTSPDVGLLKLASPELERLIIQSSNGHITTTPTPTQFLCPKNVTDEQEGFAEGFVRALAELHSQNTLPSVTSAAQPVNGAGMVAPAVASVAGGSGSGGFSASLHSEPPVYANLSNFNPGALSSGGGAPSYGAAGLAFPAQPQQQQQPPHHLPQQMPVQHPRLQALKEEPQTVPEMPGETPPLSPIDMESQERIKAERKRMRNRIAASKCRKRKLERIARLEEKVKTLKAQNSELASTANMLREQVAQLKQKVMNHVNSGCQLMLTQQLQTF
Transcription factor AP1, sequence (P05412 whole entry): as above
Transcription factor AP1, sequence (P01100 whole entry): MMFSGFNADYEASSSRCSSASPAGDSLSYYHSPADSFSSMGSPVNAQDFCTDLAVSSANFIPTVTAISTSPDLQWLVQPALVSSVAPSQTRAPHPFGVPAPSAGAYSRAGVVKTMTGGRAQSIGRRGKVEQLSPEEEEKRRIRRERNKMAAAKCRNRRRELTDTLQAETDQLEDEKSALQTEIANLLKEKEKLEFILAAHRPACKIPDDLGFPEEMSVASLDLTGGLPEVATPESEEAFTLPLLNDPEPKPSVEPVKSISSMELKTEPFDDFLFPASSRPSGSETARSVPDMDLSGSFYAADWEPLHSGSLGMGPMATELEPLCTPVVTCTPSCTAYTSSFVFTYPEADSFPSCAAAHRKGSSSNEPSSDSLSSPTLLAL
Protein max, sequence (P61244 whole entry): as the sequence (P61244 whole entry) above

SMILES: CC(=O)N[C@H]1CSSC[C@@H](C(N)=O)NC(=O)CNC(=O)[C@H](CC(=O)O)NC(=O)[C@H](C)NC(=O)[C@H](CC(C)C)NC(=O)[C@H](CC(=O)O)NC(=O)[C@H](CC(C)C)NC(=O)[C@H](CCC(N)=O)NC(=O)CNC1=O (Ac-CGQLDLADGC-NH2; disulfide 1-10)
IC50 [1]: 8 µM

SMILES: CNC(=O)c1cc2c(cc1C(=O)NC[C@H](NS(=O)(=O)c1c(Cl)sc(Cl)c1Br)C(=O)OC(C)(C)C)CN(C(=O)CCC1CCN(C(=O)OC(C)(C)C)CC1)C2
IC50 [2]: 50 µM

SMILES: CC(C)c1ccc(/C=C2\SC(=S)N(CN3CCCCC3)C2=O)cc1
IC50 [3]: 29 µM

SMILES: CC1(C)CC[C@]2(C(=O)O)CC[C@]3(C)C(=CC[C@@H]4[C@@]5(C)CC[C@H](O[C@@H]6O[C@H](C(=O)O)[C@@H](O)[C@H](O[C@@H]7OC[C@H](O)[C@H](O)[C@H]7O)[C@H]6O)C(C)(C)[C@@H]5CC[C@]43C)[C@@H]2C1
Ratio IC50 [9]: > 100 | IC50 [10]: 4000 µM | IC50 [11]: 30 µM

SMILES: COc1cc(/C=C/C(=O)/C=C(O)/C=C/c2cc(OC)c(O)c([N+](=O)[O-])c2)cc([N+](=O)[O-])c1O
Ratio IC50 [12]: 90 | IC50 [11]: 5.4 µM

SMILES: CCc1ccc(/C=C2\SC(=S)NC2=O)cc1
IC50 [14]: 49 µM | Activity [8]: 5.3 µM

The next lines start with the values.

IC50 [4]: 0.15 µM | IC50 [5]: 115 µM
SMILES: COC(=O)c1cnc2ccc(NC(=O)c3ccc4c(c3)c3cc(NC(=O)c5cc6cc(NC(=O)CCCN(C)C)ccc6o5)ccc3n4C)cc2c1

IC50 [6]: 72 µM | IC50 [7]: 30 µM
SMILES: COc1ccc(CNC(=O)c2cc3nc(-c4cccs4)cc(C(F)(F)F)n3n2)cc1

Activity [8]: 2.8 µM
SMILES: O=[N+]([O-])c1ccc(Nc2ccccc2-c2ccccc2)c2nonc12

IC50 [1]: 200 µM
SMILES: O=C(O)CCc1cc(C(=O)c2ccc(OC3CCCC3)cc2O)ccc1OCc1ccc2c(O)noc2c1

IC50 [4]: 6.2 µM | IC50 [5]: 31 µM
SMILES: COC(=O)c1cc2cc(NC(=O)c3cc4cc(NC(=O)c5cc(NC(=O)OC(C)(C)C)cs5)ccc4[nH]3)ccc2[nH]1

Ratio IC50 [13]: > 2 | IC50 [6]: 88 µM | IC50 [7]: 40 µM
SMILES: CCOC(=O)c1cnn(-c2ccccc2)c1NC(=O)c1cc2nc(-c3ccco3)cc(C(F)(F)Cl)n2n1
